What was measured:
[1] = MTT cytotoxicity assay, U-937; type: cell-based; conditions: Homo sapiens, U-937, U937, MTT;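 further: Six-dose MTT colorimetric assay on cell monolayers, formazan absorbance read at 560 nm with 620 nm background removed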
Procedure: (§2) All newly synthetic compounds were tested for cytotoxicity using a six-dose MTT colorimetric assay on three cancer cell lines; namely, breast cancer cells (MDA-MB-231), colorectal adenocarcinoma cells (HT-29) and renal cancer cells (U-937).
(§3) Using a six-dose MTT colorimetric assay [44, 66], all new synthetic compounds were tested for cytotoxicity against three cancer cell lines: MDA-MB-231 breast cancer cells, HT-29 colorectal adenocarcinoma cells, and U-937 renal cancer cells. […] These cell lines were supplied by ATCC (American Type Culture Collection) via the Holding company for biological products and vaccines (VACSERA, Cairo, Egypt). The reference control used was Methotrexate.
(§4) Using a six-dose MTT colorimetric assay [44, 66], allnew synthetic compounds were tested for cytotoxicity against three cancer cell lines: MDA-MB-231 breast cancer cells,HT-29 colorectal adenocarcinoma cells, and U-937 renal
(§5) The cell lines were supplied by ATCC (American Type Culture Collection). The reference control used was Methotrexate. The cytotoxic activities of the examined compounds were quantified by inoculating a 96-well tissue culture plate with 1 X 10^5 cells / mL (100 uL/well) and incubating it at 37°C for 24 hours to develop a complete monolayer sheet. After forming a confluent sheet of cells, the growth medium was decanted from 96-well microtiter plates, and the cell monolayer was washed twice with wash media. Two-fold dilutions of tested samples were made in RPMI medium with 2% serum (maintenance medium), and 0.1 mL of each dilution was tested in different wells, with three wells serving as controls and receiving only maintenance medium. Following that, the plate was incubated at 37°C and examined. Cells were investigated for any physical signs of toxicity, such as partial or complete monolayer loss, rounding, shrinkage, or cell granulation. MTT solution was prepared (5mg/ml in PBS) (BIO BASIC CANADA INC), and 20 uL MTT solution was added to each well. After 5 minutes on a shaking table at150 rpm to thoroughly mix the MTT into the media, it was incubated (37C, 5% CO2) for 4 hours to allow the MTT to be metabolized. Formazan (MTT metabolic product) was resuspended in 200 uL DMSO and shaken at 150 rpm for 5 minutes to thoroughly mix the formazan into the solvent. The optical density was measured at 560 nm, and the background was subtracted at 620 nm. Finally, the IC50 of the test compound in comparison to the reference was calculated using the GraphPad Prism software.

U-937 renal cancer cells = assay: MTT cytotoxicity assay, U-937; type: cell-based; conditions: MTT; for Toxicity %: U937;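 on all read-outs here: Six-dose MTT colorimetric assay on cell monolayers, formazan absorbance read at 560 nm with 620 nm background removed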
Procedure: as §2, §3, §4, §5

[2] = system: MDA-MB-231 breast cancer cells; assay: MTT cytotoxicity assay, MDA-MB-231; type: cell-based; conditions: MDA-MB-231, MTT
Method in brief: (§1)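 Cells seeded at 1 X 10^5 cells/mL and grown 24 h at 37°C to a monolayer, then exposed to two-fold compound dilutions in RPMI with 2% serum, six doses. MTT added for 4 h at 37°C, formazan dissolved in DMSO, OD read at 560 nm minus 620 nm background. IC50 from dose-response.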

[3] = system: HT-29 colorectal adenocarcinoma cells; assay: MTT cytotoxicity assay, HT-29; type: cell-based; conditions: MTT
Method in brief: as §1

human recombinant PLK1 = human recombinant PLK1 (Homo sapiens, UniProt P53350); assay: PLK1 inhibitory activity assay (ADP-Glo Kinase Assay); type: biochemical; conditions: for %inh: PLK1 Lab Report
BRD4 (BD2) = target: T1, BRD4 (BD2) (Homo sapiens, UniProt O60885); assay: BRD4 inhibitory activity assay (AlphaLISA Bromodomain Assay); type: binding; conditions: for %inh: BRD4 Lab Report;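 on all read-outs here: in vitro inhibition of recombinant BRD4 BD2 bromodomain binding to a BET bromodomain ligand, read by AlphaLISA proximity signal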
T1 construct: BRD4 (BD2) should be thawed on ice; purchased
Procedure: The BRD4 and PLK1 inhibitory assays were carried out in vitro in accordance with the manufacturer’s instructions; BRD4 was assessed using AlphaLISA Bromodomain Assay Protocol [67], and PLK1 kinase was tested using the ADP-Glo™ Kinase Assay Protocol [68], as detailed in the Supplementary file.
The BRD4 and PLK1 inhibitory assays were carried out in vitro in accordance with the manufacturer's instructions; BRD4 was assessed using AlphaLISA Bromodomain Assay Protocol [67], and PLK1 kinase was tested using the ADP-Glo™ Kinase Assay Protocol [68],
The master mixture was prepared as follows: N wells × (2.5 µL 3x BRD Homogeneous Assay Buffer 1 + 1 µL BET Bromodomain Ligand + 1.5 µL H2O). BRD4 (BD2) should be thawed on ice. Simply, the protein-containing tube was spined to recover the full content of the tube after the firstthaw. Both proteins should be aliquoted into single-use aliquots. Immediately, any remaining undiluted protein should be stored in aliquots at -80°C. BRD4 (BD2) was diluted in 1x BRD Homogeneous Assay Buffer 1 at 4 ng/µL. The diluted proteins were kept on ice until they were used. 5 µl of the master mixture is added to each well designated for the “Positive Control”, “Test Inhibitor”, and “Blank”. For the “Substrate Control”, 2.5 µL 3x BRD Homogeneous Assay Buffer 1 + 1 µL Non-acetylated Ligand 1 + 1.5 µL H2O is added. Each “Test Inhibitor” well received 2.5 µL of inhibitor solution, while the “Positive
Control”, “Substrate Control”, and “Blank” wells received 2.5 µL of the same solution without inhibitor (inhibitor buffer). Then, the “Blank” well is filled with 2.5 µL of 1x BRD Homogeneous Assay Buffer 1. After that, GSH
10 µL per well is added, the plate isshaken, and itis incubated at room temperature for 30 minutes. Streptavidin-
10 µL is added per well and incubated at room temperature for further 15 – 30 minutes [67]. The Alpha counts were read using the EnVision® multimode plate reader with the standard Alpha detection settings.

[4] = MTT cytotoxicity assay, normal Vero cells; type: cell-based; conditions: African green monkey, normal Vero cells, MTT
Procedure: as §3
1.1.In-vitro cytotoxicity screening
as §4, §5

normal Vero cells = assay: MTT cytotoxicity assay, normal Vero cells; type: cell-based; conditions: Vero, MTT
Procedure: as §3
1.1.In-vitro cytotoxicity screening
as §4, §5

human recombinant PLK1, sequence (P53350 whole entry): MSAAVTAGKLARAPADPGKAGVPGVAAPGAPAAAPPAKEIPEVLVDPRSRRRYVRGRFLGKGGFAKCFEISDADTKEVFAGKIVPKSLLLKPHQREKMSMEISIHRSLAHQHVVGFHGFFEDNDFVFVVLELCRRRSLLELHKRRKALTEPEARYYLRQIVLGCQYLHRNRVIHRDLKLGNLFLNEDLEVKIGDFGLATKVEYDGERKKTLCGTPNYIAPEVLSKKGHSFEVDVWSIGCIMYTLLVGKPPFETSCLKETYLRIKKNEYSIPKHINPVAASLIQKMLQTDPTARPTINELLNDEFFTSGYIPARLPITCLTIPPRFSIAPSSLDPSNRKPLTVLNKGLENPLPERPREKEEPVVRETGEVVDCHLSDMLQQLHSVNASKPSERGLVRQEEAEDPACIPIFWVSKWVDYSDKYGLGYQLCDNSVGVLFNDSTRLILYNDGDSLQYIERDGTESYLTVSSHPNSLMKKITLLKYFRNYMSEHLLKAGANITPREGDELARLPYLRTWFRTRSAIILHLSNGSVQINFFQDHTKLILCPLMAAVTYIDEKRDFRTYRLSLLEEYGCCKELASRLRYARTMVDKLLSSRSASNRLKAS

## Cn1c(SCC(=O)c2ccccc2)nc(=O)c(/N=C(/CBr)c2ccccc2)c1N [Compound 7, (E)-6-Amino-5-((2-bromo-1-phenylethylidene)amino)-1-methyl-2-((2-oxo-2-phenylethyl)thio)pyrimidin-4(1H)-one]
[1]; 0.312 uM
  viability at 0.312 µM: 94%
[1]; 0.625 uM
  viability at 0.625 µM: 88.3%
[1]; 1.25 uM
  viability at 1.25 µM: 55.4%
[1]; 2.5 uM
  viability at 2.5 µM: 39.7%
[1]; 5 uM
  viability at 5 µM: 29.6%
[1]; 10 uM
  viability at 10 µM: 11.4%
U-937 renal cancer cells; Homo sapiens, U-937, mean of three independent experiments ± SD, read-out: IC50 Value U-937
  IC50: 1850 ± 40 nM
U-937 renal cancer cells; 0.312 uM
  Toxicity %: 5.991%
U-937 renal cancer cells; 0.625 uM
  Toxicity %: 11.66%
U-937 renal cancer cells; 1.25 uM
  Toxicity %: 44.55%
U-937 renal cancer cells; 2.5 uM
  Toxicity %: 60.35%
U-937 renal cancer cells; 5 uM
  Toxicity %: 70.37%
U-937 renal cancer cells; 10 uM
  Toxicity %: 88.56%
[2]; Homo sapiens, mean of three independent experiments ± SD, read-out: IC50 Value MDA-MB-231
  IC50: 400 ± 10 nM
[2]; Homo sapiens, 0.312 uM
  viability at 0.312 µM: 57%
[2]; Homo sapiens, 0.625 uM
  viability at 0.625 µM: 28.9%
[2]; Homo sapiens, 1.25 uM
  viability at 1.25 µM: 16.5%
[2]; Homo sapiens, 2.5 uM
  viability at 2.5 µM: 11.7%
[2]; Homo sapiens, 5 uM
  viability at 5 µM: 11%
[2]; Homo sapiens, 10 uM
  viability at 10 µM: 4.92%
[2]; 0.312 uM
  Toxicity %: 42.95%
[2]; 0.625 uM
  Toxicity %: 71.14%
[2]; 1.25 uM
  Toxicity %: 83.51%
[2]; 2.5 uM
  Toxicity %: 88.25%
[2]; 5 uM
  Toxicity %: 88.96%
[2]; 10 uM
  Toxicity %: 95.08%
[3]; HT29, 0.312 uM
  Toxicity %: 0.04307%
[3]; HT29, 0.625 uM
  Toxicity %: 45.56%
[3]; HT29, 1.25 uM
  Toxicity %: 86.39%
[3]; HT29, 2.5 uM
  Toxicity %: 88.67%
[3]; HT29, 5 uM
  Toxicity %: 93.28%
[3]; HT29, 10 uM
  Toxicity %: 93.71%
[3]; Homo sapiens, HT-29, HT29, 0.312 uM
  viability at 0.312 µM: 100%
[3]; Homo sapiens, HT-29, HT29, 0.625 uM
  viability at 0.625 µM: 54.4%
[3]; Homo sapiens, HT-29, HT29, 1.25 uM
  viability at 1.25 µM: 13.6%
[3]; Homo sapiens, HT-29, HT29, 2.5 uM
  viability at 2.5 µM: 11.3%
[3]; Homo sapiens, HT-29, HT29, 5 uM
  viability at 5 µM: 6.72%
[3]; Homo sapiens, HT-29, HT29, 10 uM
  viability at 10 µM: 6.29%
[3]; Homo sapiens, HT-29, mean of three independent experiments ± SD, read-out: IC50 Value HT-29
  IC50: 790 ± 10 nM
Human recombinant PLK1; conc 0.01 (unit not given)
  %inh: 43%
Human recombinant PLK1; conc 0.1 (unit not given)
  %inh: 60%
Human recombinant PLK1; conc 1 (unit not given)
  %inh: 76%
Human recombinant PLK1; conc 10 (unit not given)
  %inh: 90%
Human recombinant PLK1; conc 100 (unit not given)
  %inh: 95%
Human recombinant PLK1; mean of three independent experiments, read-out: PLK1 IC50 ± SD
  IC50: 20 ± 1 nM
BRD4 (BD2); conc 0.01 (unit not given)
  %inh: 38%
BRD4 (BD2); conc 0.1 (unit not given)
  %inh: 56%
BRD4 (BD2); conc 1 (unit not given)
  %inh: 74%
BRD4 (BD2); conc 10 (unit not given)
  %inh: 89%
BRD4 (BD2); conc 100 (unit not given)
  %inh: 95%
BRD4 (BD2); mean of three independent experiments, read-out: BRD4 IC50 ± SD
  IC50: 42 ± 2 nM
[4]; mean of three independent experiments ± SD, read-out: In Vitro Cytotoxicity against Normal Cells IC50 Value, Vero Cells
  IC50: 3920 ± 80 nM
[4]; Vero, 0.312 uM
  viability at 0.312 µM: 99.6%
[4]; Vero, 0.625 uM
  viability at 0.625 µM: 99.8%
[4]; Vero, 1.25 uM
  viability at 1.25 µM: 97.6%
[4]; Vero, 2.5 uM
  viability at 2.5 µM: 73.5%
[4]; Vero, 5 uM
  viability at 5 µM: 31.6%
[4]; Vero, 10 uM
  viability at 10 µM: 10.5%
Normal Vero cells; 0.312 uM
  Toxicity %: 0.3992%
Normal Vero cells; 0.625 uM
  Toxicity %: 0.1996%
Normal Vero cells; 1.25 uM
  Toxicity %: 2.395%
Normal Vero cells; 2.5 uM
  Toxicity %: 26.55%
Normal Vero cells; 5 uM
  Toxicity %: 68.38%
Normal Vero cells; 10 uM
  Toxicity %: 89.46%

— article PMC10535864, “Novel Aminopyrimidine-2,4-diones, 2-Thiopyrimidine-4-ones, and 6-Arylpteridines as Dual-Target Inhibitors of BRD4/PLK1: Design, Synthesis, Cytotoxicity, and Computational Studies” (Pharmaceuticals, 2023)
